Measured values taken from US8519127B2, “Cyclic glycyl-2-allyl proline and its use in treatment of peripheral neuropathy” (priority 2003, dated 2013).

Assays:
cerebellar neurons = test: Cerebellar microexplants exposed to glutamate and 3-nitropropionic acid; live neurons with neurites counted; type: cell-based, rat; settings: for number of cells having neurites: administered simultaneously with glutamate, FIG. 1 / FIG. 2; for glutamate-induced neurotoxicity: low doses (cG-2AllylP: 100 pm to 10 nm)
Method: Cover slips were placed into a large Petri dish and washed in 70% alcohol for 5 minutes, then washed with Millipore H2O. The cover slips were air dried, and coated with Poly-D-Lysine (1 mg/ml stock solution in PBS, 90-100 μl) for 2 hours at 34° C.
Postnatal day 8 Wistar rats were used for the study. The rats were sacrificed and placed in ice for 1 minute, decapitated and the cerebellum removed and placed on ice. Cerebellum tissue was placed in 1 ml of 0.65% glucose-supplemented PBS (10 μl 65% stock D (+)glucose/1 ml PBS) in a large Petri dish, chopped up into smaller sections and triturated with a 1 ml insulin syringe via a 23 G (0.4 mm) needle, and then squirted back into the glucose solution in the large Petri dish. The tissue was sieved through (125 μm pore size gauze) and centrifuged (2 minutes at 60 g) twice to exchange the medium into serum-free BSA-supplemented START V medium (Biochrom, Germany). The second centrifugation step was done with 1 ml of START V medium. The microexplants were reconstituted into 500 μl of START V medium and put on ice.
Two hours after PDL-coating, the slides were washed with Millipore H2O and air dried. Each slide was placed into a small Petri dish (diameter: 35 mm) and 40 μl of START V/cell suspension was added. The tissue was incubated for 2 hours at 34° C. (settlement period). START V-medium (1 ml) was then added to the Petri dish and cultivated at 34° C. in the presence of 5% CO2 in air at 100% humidity for 48 hours.
For the study, certain explant cultures were exposed to vehicle (PBS) only. In the first study (Study 1) 10 μl of toxin 1 (L-glutamate-100 mM in Millipore water; final concentration: 1 mM) and 10 μl of toxin 2 (3-nitropropionic acid-50 mM-pH 7-in Millipore water, final concentration: 0.5 mM) was applied simultaneously with the drug to be tested ([…]). In each case, the drugs were left in contact with the explants for the duration of the study.
After explants were exposed to drugs for the study period, cells were then rinsed in PBS and then fixed in increasing concentrations of paraformaldehyde (500 μl of 0.4% PFA was applied; then 1.2% PFA; then 3% PFA and finally 4% PFA (each fixation step: 2-3 minutes). Finally, the microexplants were rinsed in PBS.
Neurons in the explants were then evaluated for morphology (presence of neurites) and counted as live cells per microscopic field. Four fields displaying highest cell density were counted per cover slip and the data presented as mean±standard error of the mean (SEM); n=4 each. Statistical significance was evaluated by using the non-paired Student's t-test.

[1] = tested on: pyridoxine-intoxicated rats; test: Pyridoxine-induced peripheral neuropathy: body weight and beam walk errors; type: in vivo, rat; settings: for body weight (percentage of baseline weight): pyridoxine 400 mg/kg i.p. b.i.d. days 1-8, vs vehicle, FIG. 5
Method: […] Sprague-Dawley rats were habituated to walk across a wooden beam (4 cm diameter, 175 cm long, circular cross-section) over a training period of 8 days prior to initiating neuropathic toxicity treatment. Animals were weighed on the day prior to pyridoxine injection (mean body weight 270 g) and were randomized into treatment groups as follows: vehicle control (distilled water, n=16), 3 mg/kg cG-2-allylP (n=16) or 30 mg/kg cG-2-allylP (n=16). All groups received pyridoxine (400 mg/kg i.p.) 2/day for 8 days (days 1-8) and either vehicle or cG-2-allylP (3 or 30 mg/kg, p.o.) 1/day on days 1-10. Body weights were monitored throughout treatment and until study day 28. Beam walking was assessed on days 0 (baseline), 14, 21, and 28. Beam walk errors were assessed according to the method of Callizot (Callizot et al, Pyridoxine-Induced Neuropathy in Rats: a Sensory neuropathy that Responds to 4-methylcatechol, Neurobiol. Dis. 8:626-635 (2001.)) incorporated herein fully by reference. Each rat was scored for 7 steps taken in traversing the beam, as follows: 1=hind-paw placed on the top of the beam (normal); 2=paw contacted the lateral line of the beam; 3=paw overlapping the lateral line on the beam; 4=rat unable to place its feet on the beam. Rats that could walk across the beam therefore recorded a maximum functional deficit score of 28. Rats unable to take 7 steps along the beam scored 30, while rats unable to balance on the beam at all scored 32.
Two-way analysis of variance (ANOVA) was conducted on beam walk performance data, with time and treatment as variables, applying Bonferroni post-hoc tests to assess individual treatment condition differences. Statistical significance was assumed if p<0.05.

microglia = settings: response to hypoxia-ischemia in rat model; cited from earlier work
diabetic rats = test: Streptozotocin-induced diabetic neuropathy, tactile allodynia (von Frey hairs); type: in vivo, rat; settings: 3-30 mg/kg p.o. 1/day for 14 days; STZ-diabetic rats
Method: Rats (225-250 g) are rendered diabetic by an i.p. injection of streptozotocin (STZ; 75 mg/kg). A diabetic condition is confirmed in each rat 10 days later by measurement of tail vein blood glucose levels. Only rats with a final blood glucose level>13.8 mM are considered diabetic and are included in the experiment.
Hyperglycemic, diabetic rats are dosed with cG-2-allylP (3-30 mg/kg, p.o. 1/day) from day 14 until day 28 (for a total of 14 days of treatment). Glucose measurements are taken on day 14 (pre-dose), day 21, day 28 and day 42.
Rats are tested for tactile allodynia on days 14 (pre-dose), and on days 16, 21, 28, 35 and 42 using van Frey hairs. Rats are tested for responsivity to von Frey hairs with calibrated bending forces of 1.5-15 g, to deliver punctate mechanical stimuli of varying intensities. Filaments exerting a force above 15 g are not used. Starting with the lowest filament force (1.5 g), von Frey hairs are applied to the plantar surface of the hind paw, with sufficient force to cause slight bending against the paw, and held for 1 s. Each stimulation is applied five times with an inter-stimulus interval of 5-10 s. Care is taken to stimulate random locations on the plantar surface. A positive response is noted if the paw was robustly and immediately withdrawn. […]

[2] = tested on: rats exposed to hypoxic-ischemic injury (HI); test: Hypoxic-ischemic injury (modified Levine model), histological tissue damage score; type: in vivo, rat
Method: To determine whether cG-2AllylP might prevent neuronal injury in response to stroke, cardiac arterial bypass graft surgery (CABG) or other hypoxic insults, a series of studies were carried out in rats that had been exposed to hypoxic-ischemic injury (HI). Adult rats (Wistar, 280-310 g, male) were used. The modified Levine model preparation and experimental procedures were used (Rice et al, 1981, Ann. Neural.: 9: 131-141; Guan et al J., 1993, Cereb. Blood Flow Metab.: 13(4): 609-16). These procedures in brief, consist of an HI injury induced by unilateral carotid artery ligation followed by inhalational asphyxia in the animals with an implanted lateral ventricular cannula. A guide cannula was stereotaxically placed on the top of the dura 1.5 mm to the right of the mid-line and 7.5 mm anterior to the interaural zero plane under halothane anaesthesia. The right carotid artery was double ligated two days after the cannulation. After 1 hour recovery from the anaesthesia, each of the rats were placed in an incubator where the humidity (90±5%) and temperature (31°±0.5° C.) were controlled for another hour, then exposed to hypoxia (6% oxygen) for 10 min, The animals were kept in the incubator for an additional 2 hours before treatment.
Nine pairs of rats were treated intracerebral ventricularly (icy) with either cG-2AllylP (2 ng) or its vehicle (normal saline) 2 hours after hypoxic-ischemic insult. Rats in each group were simultaneously infused with cG-2AllylP or its vehicle under light anaesthesia (1.5% halothane) 2 hours after the insult. […]
Coronal sections 8 μm in thickness were cut from the striatum, cerebral cortex and hippocampus and were stained with thionin and acid fuchsin. The histological outcome was assessed at three levels: (1) the mid level of the striatum, (2) where the completed hippocampus first appeared and (3) the level where the ventral horn of the hippocampus just appears. The severity of tissue damage was scored in the striatum, cortex and the CA1-2, CA3, CA4 and dentate gyrus of the hippocampus. […]

[3] = tested on: cleaved caspase-3 protein; settings: rats exposed to hypoxia/ischaemia; cited from earlier work

| SMILES | number of cells having neurites (cerebellar neurons) | glutamate-induced neurotoxicity (cerebellar neurons) | loss of cerebellar neurons having neurites (cerebellar neurons; glutamate 1 mM, compared to vehicle-treated controls, FIG. 1) [%] | body weight (percentage of baseline weight) ([1]; 3 mg/kg p.o. 1/day days 1-10) | body weight (percentage of baseline weight) ([1]; 3 mg/kg p.o. 1/day days 1-10, listed as cG-2allylP) | body weight (percentage of baseline weight) ([1]; 30 mg/kg p.o. 1/day days 1-10) | body weight (percentage of baseline weight) ([1]; 30 mg/kg p.o. 1/day days 1-10, listed as cG-2allylP) | beam walking errors ([1]; 30 mg/kg p.o. days 1-10, test days 14, 21, 28, p<0.05 vs vehicle, FIG. 6) | activation of microglia (microglia) | pain threshold in response to von Frey hair pressure to hind paws (diabetic rats) | tissue damage score ([2]; 2 ng icv 2 hours after hypoxic-ischemic insult, histology 5 days after injury, vs vehicle, p<0.001, FIG. 3) | neuronal damage scores ([2]; 2, 4, 20, 100 ng icv 2 hours after insult, all sites and doses other than 100 ng in striatum, FIG. 4) | efficacy by brain region ([2]; regions with progressive injury such as dentate gyrus and cerebral cortex, FIG. 4) | expression of cleaved caspase-3 protein in the cerebral cortex [3] |
| --- | --- | --- | --- | --- | --- | --- | --- | --- | --- | --- | --- | --- | --- | --- |
| C[C@@]12CCCN1C(=O)C1(CCCC1)NC2=O [Cyclic cyclopentyl-G-2MeP, (8aS)-Methyl-spiro[cyclopentane-1,3(4H)-tetrahydropyrrolo[1,2-a]pyrazine]-1,4(2H)-dione] | significantly increased the number of cells having neurites | significant decrease in glutamate-induced neurotoxicity |  |  |  |  |  |  |  |  |  |  |  |  |
| N[C@@H](CCC(=O)O)C(=O)O [Glutamate, L-glutamate, reference compound] |  |  | ~85 |  |  |  |  |  |  |  |  |  |  |  |
| C=CC[C@]12CCCN1C(=O)CNC2=O [cG-2-allylP, (8aS)-Allyl-hexahydropyrrolo[1,2-a]pyrazine-1,4-dione] | significantly increased the numbers of cells having neurites in a dose-dependent manner | significant decrease in glutamate-induced neurotoxicity |  | significantly attenuated the effect of pyridoxine on body weight on test day 9 | greater gain of body weight than in animals treated with pyridoxine alone | significantly attenuate pyridoxine-mediated body weight loss on days 9, 14, 21 and 28 | greater gain of body weight than in animals treated with pyridoxine alone | effectively prevented pyridoxine-induced beam walking errors | reduce activation of microglia | increase the pain threshold | significantly reduced the tissue damage in each brain region examined | lessened the neural damage effects of hypoxia/ischemia | increased efficacy in brain regions that experienced progressive injury associated with delayed cell death | decreased expression of cleaved caspase-3 protein in the cerebral cortex |
